Results taken from ChEMBL document CHEMBL3046568, “Synthesis, antimicrobial and DNA cleavage studies of some 4-aryloxymethylcoumarins obtained by reaction of 4-bromomethylcoumarins with bidentate nucleophiles” (2012).
Converted amounts (≈) assume the structure as drawn. The source made the active and inactive calls. The calls are words filed in the database; no cut-off is given here.

Assays:
Enterococcus faecalis = experiment: Antibacterial activity against Enterococcus faecalis MTCC 3382 after 24 hr by disk diffusion method; format: functional; conditions: for MIC: Enterococcus faecalis, MTCC 3382, 24 h
Escherichia coli [1] = experiment: Induction of Escherichia coli MTCC 1089 DNA cleavage at 25 ug after 2 hr by agarose gel electrophoresis
Aspergillus niger [2] = experiment: Induction of Aspergillus niger DNA cleavage at 50 ug after 2 hr by agarose gel electrophoresis
Escherichia coli [3] = experiment: Induction of Escherichia coli MTCC 1089 DNA cleavage at 50 ug after 2 hr by agarose gel electrophoresis
Staphylococcus aureus [4] = experiment: Induction of Staphylococcus aureus MTCC 3160 DNA cleavage at 50 ug after 2 hr by agarose gel electrophoresis
Fusarium oxysporum = experiment: Antifungal activity against Fusarium oxysporum after 3 to 4 days by serial dilution method; format: functional; conditions: for MIC: Fusarium oxysporum
Mucor fuscus = experiment: Antifungal activity against Mucor fuscus after 3 to 4 days by serial dilution method; format: functional; conditions: for MIC: Mucor fuscus
Penicillium chrysogenum = experiment: Antifungal activity against Penicillium chrysogenum after 3 to 4 days by serial dilution method; format: functional; conditions: for MIC: Penicillium chrysogenum
Aspergillus niger [5] = experiment: Antifungal activity against Aspergillus niger after 3 to 4 days by serial dilution method; format: functional; conditions: for MIC: Aspergillus niger
Candida albicans = experiment: Antifungal activity against Candida albicans after 3 to 4 days by serial dilution method; format: functional; conditions: for MIC: Candida albicans
Aspergillus fumigatus = experiment: Antifungal activity against Aspergillus fumigatus after 3 to 4 days by serial dilution method; format: functional; conditions: for MIC: Aspergillus fumigatus
Escherichia coli [6] = experiment: Antibacterial activity against Escherichia coli MTCC 1089 after 24 hr by disk diffusion method; format: functional; conditions: for MIC: Escherichia coli, MTCC 1089, 24 h
Klebsiella pneumoniae = experiment: Antibacterial activity against Klebsiella pneumoniae MTCC 3384 after 24 hr by disk diffusion method; format: functional; conditions: for MIC: Klebsiella pneumoniae, MTCC 3384, 24 h
Pseudomonas aeruginosa = experiment: Antibacterial activity against Pseudomonas aeruginosa MTCC 1034 after 24 hr by disk diffusion method; format: functional; conditions: for MIC: Pseudomonas aeruginosa, MTCC 1034, 24 h
Bacillus subtilis = experiment: Antibacterial activity against Bacillus subtilis MTCC 297 after 24 hr by disk diffusion method; format: functional; conditions: for MIC: Bacillus subtilis, MTCC 297, 24 h
Staphylococcus aureus [7] = experiment: Antibacterial activity against Staphylococcus aureus MTCC 3160 after 24 hr by disk diffusion method; format: functional; conditions: for MIC: Staphylococcus aureus, MTCC 3160, 24 h
Aspergillus niger [8] = experiment: Induction of Aspergillus niger DNA cleavage at 25 ug after 2 hr by agarose gel electrophoresis
Staphylococcus aureus [9] = experiment: Induction of Staphylococcus aureus MTCC 3160 DNA cleavage at 25 ug after 2 hr by agarose gel electrophoresis

| Compound | inhibition zone (IZ) (Enterococcus faecalis) [mm] | MIC (Enterococcus faecalis) [mg/L] | Activity (Aspergillus niger [2]) | Activity (Escherichia coli [3]) | Activity (Staphylococcus aureus [4]) | inhibition zone (IZ) (Fusarium oxysporum) [mm] | MIC (Fusarium oxysporum) [mg/L] | inhibition zone (IZ) (Mucor fuscus) [mm] | MIC (Mucor fuscus) [mg/L] | inhibition zone (IZ) (Penicillium chrysogenum) [mm] | MIC (Penicillium chrysogenum) [mg/L] | inhibition zone (IZ) (Aspergillus niger [5]) [mm] | MIC (Aspergillus niger [5]) [mg/L] | inhibition zone (IZ) (Candida albicans) [mm] | MIC (Candida albicans) [mg/L] | inhibition zone (IZ) (Aspergillus fumigatus) [mm] | MIC (Aspergillus fumigatus) [mg/L] | inhibition zone (IZ) (Escherichia coli [6]) [mm] | MIC (Escherichia coli [6]) [mg/L] | inhibition zone (IZ) (Klebsiella pneumoniae) [mm] | other results |
| --- | --- | --- | --- | --- | --- | --- | --- | --- | --- | --- | --- | --- | --- | --- | --- | --- | --- | --- | --- | --- | --- |
| COc1ccc2oc(=O)cc(COc3cccc(NC(C)=O)c3)c2c1 | 20 | 6.25 (≈ 18.4 µM) | Active | Active | Active | 16 | 12.5 (≈ 36.8 µM) | 21 | 6.25 (≈ 18.4 µM) | 20 | 6.25 (≈ 18.4 µM) | 21 | 6.25 (≈ 18.4 µM) | 19 | 6.25 (≈ 18.4 µM) | 21 | 6.25 (≈ 18.4 µM) | 17 | 12.5 (≈ 36.8 µM) | 21 | Activity (Escherichia coli [1]): Active; MIC (Klebsiella pneumoniae): 6.25 mg/L (≈ 18.4 µM); inhibition zone (IZ) (Pseudomonas aeruginosa): 25 mm; MIC (Pseudomonas aeruginosa): 6.25 mg/L (≈ 18.4 µM); inhibition zone (IZ) (Bacillus subtilis): 19 mm; MIC (Bacillus subtilis): 6.25 mg/L (≈ 18.4 µM); inhibition zone (IZ) (Staphylococcus aureus [7]): 19 mm; MIC (Staphylococcus aureus [7]): 6.25 mg/L (≈ 18.4 µM) |
| O=c1cc(COc2cccc(OCc3cc(=O)oc4ccc(Cl)cc34)c2)c2cc(Cl)ccc2o1 | 23 | 6.25 (≈ 12.6 µM) | Active | Active | Active | 16 | 12.5 (≈ 25.2 µM) | 22 | 6.25 (≈ 12.6 µM) | 20 | 6.25 (≈ 12.6 µM) | 24 | 6.25 (≈ 12.6 µM) | 19 | 6.25 (≈ 12.6 µM) | 22 | 6.25 (≈ 12.6 µM) | 15 | 12.5 (≈ 25.2 µM) | 18 | Activity (Aspergillus niger [8]): Active; MIC (Klebsiella pneumoniae): 6.25 mg/L (≈ 12.6 µM); inhibition zone (IZ) (Pseudomonas aeruginosa): 22 mm; MIC (Pseudomonas aeruginosa): 6.25 mg/L (≈ 12.6 µM); inhibition zone (IZ) (Bacillus subtilis): 19 mm; MIC (Bacillus subtilis): 6.25 mg/L (≈ 12.6 µM); inhibition zone (IZ) (Staphylococcus aureus [7]): 20 mm; MIC (Staphylococcus aureus [7]): 6.25 mg/L (≈ 12.6 µM) |
| CC(=O)Nc1cccc(OCc2cc(=O)oc3ccc(Cl)cc23)c1 | 23 | 6.25 (≈ 18.2 µM) | Active | Active | Active | 16 | 12.5 (≈ 36.4 µM) | 22 | 6.25 (≈ 18.2 µM) | 23 | 6.25 (≈ 18.2 µM) | 22 | 6.25 (≈ 18.2 µM) | 20 | 6.25 (≈ 18.2 µM) | 22 | 6.25 (≈ 18.2 µM) | 16 | 12.5 (≈ 36.4 µM) | 19 | Activity (Aspergillus niger [8]): Active; MIC (Klebsiella pneumoniae): 6.25 mg/L (≈ 18.2 µM); inhibition zone (IZ) (Pseudomonas aeruginosa): 23 mm; MIC (Pseudomonas aeruginosa): 6.25 mg/L (≈ 18.2 µM); inhibition zone (IZ) (Bacillus subtilis): 20 mm; MIC (Bacillus subtilis): 6.25 mg/L (≈ 18.2 µM); inhibition zone (IZ) (Staphylococcus aureus [7]): 21 mm; MIC (Staphylococcus aureus [7]): 6.25 mg/L (≈ 18.2 µM) |
| O=c1cc(COc2cccc(O)c2)c2cc(Cl)ccc2o1 | 22 | 6.25 (≈ 20.6 µM) | Active | Active | Active | 17 | 12.5 (≈ 41.3 µM) | 21 | 6.25 (≈ 20.6 µM) | 22 | 6.25 (≈ 20.6 µM) | 24 | 6.25 (≈ 20.6 µM) | 20 | 6.25 (≈ 20.6 µM) | 21 | 6.25 (≈ 20.6 µM) | 17 | 12.5 (≈ 41.3 µM) | 19 | Activity (Aspergillus niger [8]): Active; Activity (Staphylococcus aureus [9]): Active; MIC (Klebsiella pneumoniae): 6.25 mg/L (≈ 20.6 µM); inhibition zone (IZ) (Pseudomonas aeruginosa): 24 mm; MIC (Pseudomonas aeruginosa): 6.25 mg/L (≈ 20.6 µM); inhibition zone (IZ) (Bacillus subtilis): 20 mm; MIC (Bacillus subtilis): 6.25 mg/L (≈ 20.6 µM); inhibition zone (IZ) (Staphylococcus aureus [7]): 21 mm; MIC (Staphylococcus aureus [7]): 6.25 mg/L (≈ 20.6 µM) |
